Results published in article PMC9090415, “Discovery of small molecule inhibitors of Plasmodium falciparum apicoplast DNA polymerase” (Journal of Enzyme Inhibition and Medicinal Chemistry, 2022).
pIC50: −log10 of the molar value.

Target: P. falciparum apicoplast DNA polymerase (Pf-apPOL) (Plasmodium falciparum, UniProt Q8ILY1)
Test: Fluorescence-based high-throughput DNA polymerase assay (molecular beacon), primary screen and dose-response
Type: biochemical
Outline: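 Single-point screening used 10 µM compound with 20 nM polymerase, 20 nM hairpin substrate and 6 µM dNTPs for 90 min at 25 °C. Confirmatory titrations (2.5–80 µM) followed fluorescence at three times, and IC50 was derived from a fit including a cooperativity term n.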

[1] = supplemental file 2, sheet IC50 nontoxic compounds; Pf-apPOL

P. falciparum apicoplast DNA polymerase (Pf-apPOL), sequence (Q8ILY1 entry or part of it): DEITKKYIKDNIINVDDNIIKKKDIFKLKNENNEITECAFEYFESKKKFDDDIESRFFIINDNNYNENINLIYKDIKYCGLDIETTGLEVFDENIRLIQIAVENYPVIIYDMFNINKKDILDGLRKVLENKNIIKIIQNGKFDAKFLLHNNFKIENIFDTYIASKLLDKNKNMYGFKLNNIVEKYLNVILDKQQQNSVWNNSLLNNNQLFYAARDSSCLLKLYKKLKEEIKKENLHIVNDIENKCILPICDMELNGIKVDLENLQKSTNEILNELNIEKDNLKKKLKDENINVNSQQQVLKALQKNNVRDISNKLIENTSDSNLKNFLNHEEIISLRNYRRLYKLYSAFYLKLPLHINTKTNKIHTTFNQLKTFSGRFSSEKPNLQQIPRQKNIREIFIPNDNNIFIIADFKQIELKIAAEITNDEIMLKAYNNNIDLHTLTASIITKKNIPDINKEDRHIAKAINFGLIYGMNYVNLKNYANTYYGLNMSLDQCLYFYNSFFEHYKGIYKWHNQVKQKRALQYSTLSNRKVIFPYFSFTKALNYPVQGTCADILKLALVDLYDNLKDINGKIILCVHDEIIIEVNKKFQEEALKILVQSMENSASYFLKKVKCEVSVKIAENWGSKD

O=C(O)C(=O)Nc1nc(-c2ccc3c(c2)OCCO3)cs1 [Molecule 82, OC(=O)C(=O)Nc1scc(n1)c1ccc2c(c1)OCCO2]
DNA Pol (186 hits, value of the hit list (primary screen); unit not given; 90 min, 10 µM): 43 | % inhibition Apo pol 10' (DRC-1; 10'; concentration 2.5): 23.4738% | % inhibition Apo pol 10' (DRC-1; 10'; concentration 5): 27.4589% | % inhibition Apo pol 10' (DRC-1; 10'; concentration 10): 36.2592% | % inhibition Apo pol 10' (DRC-1; 10'; concentration 20): 39.5068% | % inhibition Apo pol 10' (DRC-1; 10'; concentration 40): 47.7699% | % inhibition Apo pol 10' (DRC-1; 10'; concentration 80): 63.5129% | % inhibition Apol 90' (DRC-1; 90'; concentration 2.5): 8.772% | % inhibition Apol 90' (DRC-1; 90'; concentration 5): 11.5991% | % inhibition Apol 90' (DRC-1; 90'; concentration 10): 21.2379% | % inhibition Apol 90' (DRC-1; 90'; concentration 20): 24.9603% | % inhibition Apol 90' (DRC-1; 90'; concentration 40): 33.8146% | % inhibition Apol 90' (DRC-1; 90'; concentration 80): 46.367% | % inhibition apPOL 180' (DRC-1; 180'; concentration 2.5): 0.4032% | % inhibition apPOL 180' (DRC-1; 180'; concentration 5): 2.14% | % inhibition apPOL 180' (DRC-1; 180'; concentration 10): 10.4775% | % inhibition apPOL 180' (DRC-1; 180'; concentration 20): 13.4628% | % inhibition apPOL 180' (DRC-1; 180'; concentration 40): 21.1866% | % inhibition apPOL 180' (DRC-1; 180'; concentration 80): 32.4786% | % inhibition Apo pol 5' (DRC-2, 5', concentration 2.5): 23% | % inhibition Apo pol 5' (DRC-2, 5', concentration 5): 17% | % inhibition Apo pol 5' (DRC-2, 5', concentration 10): 25% | % inhibition Apo pol 5' (DRC-2, 5', concentration 20): 30% | % inhibition Apo pol 5' (DRC-2, 5', concentration 40): 34% | % inhibition Apo pol 5' (DRC-2, 5', concentration 80): 46% | % inhibition Apol 40' (DRC-2, 40', concentration 2.5): 13% | % inhibition Apol 40' (DRC-2, 40', concentration 5): 15% | % inhibition Apol 40' (DRC-2, 40', concentration 10): 24% | % inhibition Apol 40' (DRC-2, 40', concentration 20): 28% | % inhibition Apol 40' (DRC-2, 40', concentration 40): 37% | % inhibition Apol 40' (DRC-2, 40', concentration 80): 46% | % inhibition ApPOL 90' (DRC-2, 90', concentration 2.5): 8% | % inhibition ApPOL 90' (DRC-2, 90', concentration 5): 14% | % inhibition ApPOL 90' (DRC-2, 90', concentration 10): 23% | % inhibition ApPOL 90' (DRC-2, 90', concentration 20): 26% | % inhibition ApPOL 90' (DRC-2, 90', concentration 40): 34% | % inhibition ApPOL 90' (DRC-2, 90', concentration 80): 43% | % inhibition apPOL 180' (DRC-2, 180', concentration 2.5): 0.181% | % inhibition apPOL 180' (DRC-2, 180', concentration 5): 9% | % inhibition apPOL 180' (DRC-2, 180', concentration 10): 15% | % inhibition apPOL 180' (DRC-2, 180', concentration 20): 18% | % inhibition apPOL 180' (DRC-2, 180', concentration 40): 25% | % inhibition apPOL 180' (DRC-2, 180', concentration 80): 34% | % inhibition Apo pol 5' (DRC-2; 5'; concentration 2.5): 23% | % inhibition Apo pol 5' (DRC-2; 5'; concentration 10): 25% | % inhibition Apo pol 5' (DRC-2; 5'; concentration 40): 34% | % inhibition Apo pol 5' (DRC-2; 5'; concentration 80): 46% | % inhibition Apol 40' (DRC-2; 40'; concentration 5): 15% | % inhibition Apol 40' (DRC-2; 40'; concentration 80): 46% | % inhibition ApPOL 90' (DRC-2; 90'; concentration 10): 23% | % inhibition ApPOL 90' (DRC-2; 90'; concentration 40): 34% | % inhibition apPOL 180' (DRC-2; 180'; concentration 10): 15% | % inhibition apPOL 180' (DRC-2; 180'; concentration 40): 25% | % inhibition apPOL 180' (DRC-2; 180'; concentration 80): 34% | DNA Pol (primary screen value, 'DNA Pol' only; 90 min, 10 µM): 43

Cc1ccc(C(=O)/C=C/C=C/C=C/N(C)C)o1 [Molecule 96]
pIC50 [1]: 5.31

CCCCCc1c2c(cc(O)c1C(=O)O)OC(=O)c1c(cc(OC)cc1C(=O)CCCC)O2 [Molecule 24]
pIC50 [1]: 5.03

Cc1cc(C)c2c(c1)C1C=CCC1C(c1ccc(C(=O)O)cc1)N2 (centres unmarked) [Molecule 102, Cc1cc(C)c2c(c1)C1C=CCC1C(N2)c1ccc(cc1)C(=O)O]
DNA Pol ('DNA Pol' of the 186 hits list (screen value); 90 min, 10 µM): 60 | % inhibition Apo pol 10' (DRC-1; 10'; conc 2.5): 46.2676% | % inhibition Apo pol 10' (DRC-1; 10'; conc 5): 62.6778% | % inhibition Apo pol 10' (DRC-1; 10'; conc 10): 76.4739% | % inhibition Apo pol 10' (DRC-1; 10'; conc 20): 82.8067% | % inhibition Apo pol 10' (DRC-1; 10'; conc 40): 91.6956% | % inhibition Apo pol 10' (DRC-1; 10'; conc 80): 93.5405% | % inhibition Apol 90' (DRC-1; 90'; conc 2.5): 14.3309% | % inhibition Apol 90' (DRC-1; 90'; conc 5): 28.3959% | % inhibition Apol 90' (DRC-1; 90'; conc 10): 47.4171% | % inhibition Apol 90' (DRC-1; 90'; conc 20): 62.2374% | % inhibition Apol 90' (DRC-1; 90'; conc 40): 86.2676% | % inhibition Apol 90' (DRC-1; 90'; conc 80): 94.9161% | % inhibition apPOL 180' (DRC-1; 180'; conc 2.5): 1.778% | % inhibition apPOL 180' (DRC-1; 180'; conc 5): 12.6672% | % inhibition apPOL 180' (DRC-1; 180'; conc 10): 32.4501% | % inhibition apPOL 180' (DRC-1; 180'; conc 20): 53.0918% | % inhibition apPOL 180' (DRC-1; 180'; conc 40): 83.5057% | % inhibition apPOL 180' (DRC-1; 180'; conc 80): 95.0431% | % inhibition Apo pol 5' (DRC-2; 5'; conc 2.5): 40% | % inhibition Apo pol 5' (DRC-2; 5'; conc 5): 51% | % inhibition Apo pol 5' (DRC-2; 5'; conc 10): 55% | % inhibition Apo pol 5' (DRC-2; 5'; conc 20): 58% | % inhibition Apo pol 5' (DRC-2; 5'; conc 40): 59% | % inhibition Apo pol 5' (DRC-2; 5'; conc 80): 58% | % inhibition Apo pol 5' (DRC-2; 5'; concentration 2.5): 40% | % inhibition Apo pol 5' (DRC-2; 5'; concentration 20): 58% | % inhibition Apo pol 5' (DRC-2; 5'; concentration 40): 59% | % inhibition Apo pol 5' (DRC-2; 5'; concentration 80): 58% | % inhibition Apol 40' (DRC-2; 40'; conc 2.5): 34% | % inhibition Apol 40' (DRC-2; 40'; conc 5): 50% | % inhibition Apol 40' (DRC-2; 40'; conc 10): 59% | % inhibition Apol 40' (DRC-2; 40'; conc 20): 71% | % inhibition Apol 40' (DRC-2; 40'; conc 40): 76% | % inhibition Apol 40' (DRC-2; 40'; conc 80): 75% | % inhibition Apol 40' (DRC-2; 40'; concentration 10): 59% | % inhibition Apol 40' (DRC-2; 40'; concentration 80): 75% | % inhibition ApPOL 90' (DRC-2; 90'; conc 2.5): 28% | % inhibition ApPOL 90' (DRC-2; 90'; conc 5): 47% | % inhibition ApPOL 90' (DRC-2; 90'; conc 10): 58% | % inhibition ApPOL 90' (DRC-2; 90'; conc 20): 73% | % inhibition ApPOL 90' (DRC-2; 90'; conc 40): 80% | % inhibition ApPOL 90' (DRC-2; 90'; conc 80): 79% | % inhibition ApPOL 90' (DRC-2; 90'; concentration 10): 58% | % inhibition apPOL 180' (DRC-2; 180'; conc 2.5): 19% | % inhibition apPOL 180' (DRC-2; 180'; conc 5): 40% | % inhibition apPOL 180' (DRC-2; 180'; conc 10): 54% | % inhibition apPOL 180' (DRC-2; 180'; conc 20): 75% | % inhibition apPOL 180' (DRC-2; 180'; conc 40): 83% | % inhibition apPOL 180' (DRC-2; 180'; conc 80): 83% | % inhibition apPOL 180' (DRC-2; 180'; concentration 5): 40% | % inhibition apPOL 180' (DRC-2; 180'; concentration 20): 75% | % inhibition apPOL 180' (DRC-2; 180'; concentration 40): 83% | % inhibition apPOL 180' (DRC-2; 180'; concentration 80): 83% | DNA Pol (primary screen value, "DNA Pol"; 90 min, 10 µM): 60

COc1ccc(NC(=O)Cn2nc3c(cc2=O)CCC3)cc1Cl [Molecule 4]
pIC50 [1]: 5.28
